# Laboratory results taken from ChEMBL document CHEMBL5053558, “Novel Indole Compounds as TEAD Inhibitors for Treating Cancer” (ACS Med Chem Lett, 2021).
# pIC50: −log10 of the molar value.
# Experiment: Inhibition of TEAD in human tumour cells assessed as YAP1/TAZ-TEAD modulation incubated for 48 hrs by Bright-Glo luciferase assay
# Assay type: cell-based
# Settings: Tumor Cell line
row,Structure (SMILES),pIC50
1,C=CC(=O)Nc1ccc2c(c1)c(C)cn2-c1ccc(C(F)(F)F)cc1,8.05
2,C=CC(=O)Nc1ccc2c(c1)c(COC)cn2-c1ccc(C(F)(F)F)cc1,7.82

# Further lines, results first:
row,pIC50,Structure (SMILES)
1,7.92,C=CC(=O)Nc1ccc2c(c1)cc(C)n2-c1ccc(C(F)(F)F)cc1
2,7.74,C=CC(=O)Nc1cc2ccn(Cc3cccc(C(F)(F)F)c3)c2cc1F
3,7.70,C=CC(=O)Nc1ccc2c(ccn2Cc2ccc(-c3cccc(C(F)(F)F)c3)cc2)c1
4,8.10,C=CC(=O)Nc1ccc2c(ccn2-c2ccc(C(F)(F)F)cc2)c1
